Measurements: US20110217300A1, “Quinazolinone Compounds and Methods of Use Thereof” (priority 2007, published 2011)

Legend:
HsEg5 = biological target: T1, HsEg5 (Homo sapiens, UniProt P52732); experiment: Luminescent detection of HsEg5 ATPase activity (Kinase-Glo Plus); type: biochemical
T1 sequence (P52732 18-359 limits assumed): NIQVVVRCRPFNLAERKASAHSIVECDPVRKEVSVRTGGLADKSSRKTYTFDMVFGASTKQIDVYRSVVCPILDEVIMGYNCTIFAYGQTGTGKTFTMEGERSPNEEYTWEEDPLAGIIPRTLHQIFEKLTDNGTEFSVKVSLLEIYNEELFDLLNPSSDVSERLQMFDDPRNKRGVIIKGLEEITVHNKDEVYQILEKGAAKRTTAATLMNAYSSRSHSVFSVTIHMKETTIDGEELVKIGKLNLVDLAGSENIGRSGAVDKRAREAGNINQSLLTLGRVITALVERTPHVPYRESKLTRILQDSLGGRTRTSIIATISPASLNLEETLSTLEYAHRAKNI
Experimental: Purified HsEg5 motor fragment was activated by mixture with preformed MT polymer (Cytoskeleton, Denver, Colo.) at room temperature for 20 minutes. MT activated ATPase activity was measured using Kinase-Glo® Plus Luminescent Kinase Assay (Promega, Madison, Wis.).
For inhibitor screening, 5 μL of compounds were incubated with 20 μL of MT-activated HsEg5 such that the final concentrations for compound range from 100 μM to 5 nM (1 to 3 serial dilutions, final concentration) and final concentration for HsEg5 is 25 nM. The mixture was incubated at room temperature for 20 minutes with mild shaking. The screening assay contained 0.3% DMSO in all reaction wells. We used wells containing only DMSO as negative controls and wells without ATP as background. Addition of 15 μL of 13 μM ATP (final concentration of 5 μM) initiated the ATP hydrolysis reaction. The 40 μL-reaction was allowed to proceed at room temperature for 45 minutes before addition of 40 μL of Kinase®-Glo Plus. After 15-minute development at room temperature, the luminescent was measured.
Eg5 IC50 data was generated using both fluorescence and Luminescence detection assays as described above. Compounds I-69 were screened using automated fluorescence assay while compounds 70-83 were screened using Luminescence detection assay. (See reference “Zhang B, Senator D, Wilson C J, Ng S C. (2005) “Development of a high-throughput robotic fluorescence-based assay for HsEg5 inhibitor screening” Anal Biochem. 345:326-335″).

NCI-H460 = experiment: MTS cell viability assay; type: cell-based, human; settings: Homo sapiens, NCI-H460, 72 h, read-out: MTS NCI H460 GI50
Summary of the method: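 GI50 values come from tetrazolium (MTS) absorbance at 490 nm, measured within two hours of SDS addition. Cells had been treated with compound for 72 hours in supplemented DMEM, then given […] PMS 7.67 mg/L for 4 hours.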

A549 = experiment: MTS cell viability assay; type: cell-based; settings: Homo sapiens, A549, 72 h, read-out: MTS NCI A549 GI50
Summary of the method: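 A549 and a second human cancer line seeded in DMEM/10% FBS, allowed 16–24 h to attach, then exposed 72 h at 37 °C, 5% CO2 to serially diluted compound (final DMSO 0.33%). Viability measured by MTS.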

| IC50 (HsEg5) [nM] | Structure (SMILES) | GI50 (NCI-H460) [nM] | GI50 (A549) [nM] |
| --- | --- | --- | --- |
| 130 | C#CC[C@H](c1nc2cc(Cl)ccc2c(=O)n1Nc1ccccc1)N(CCCN)C(=O)c1ccc(C)c(F)c1F [Compound 76, N-(3-Amino-propyl)-N—[(R)-1-(7-chloro-4-oxo-3-phenylamino-3,4-dihydro-quinazolin-2-yl)-but-3-ynyl]-2,3-difluoro-4-methyl-benzamide] | 860 | 1300 |
| 160 | C#CC[C@H](c1nc2cc(Cl)ccc2c(=O)n1Nc1ccccc1)N(CCCN)C(=O)c1cc(F)cc(F)c1F [Compound 81, (R)—N-(3-Aminopropyl)-N-(1-(7-chloro-4-oxo-3-(phenylamino)-3,4-dihydroquinazolin-2-yl)but-3-ynyl)-2,3,5-trifluorobenzamide] | 340 | 660 |
| 5900 | CC#CCC(c1nc2cc(Cl)ccc2c(=O)n1Nc1ccccc1)N(CCCN)C(=O)c1cccc(Cl)c1F (stereo not drawn) [Compound 74, N-(3-Aminopropyl)-3-chloro-N-(1-(7-chloro-4-oxo-3-(phenylamino)-3,4-dihydroquinazolin-2-yl)pent-3-ynyl)-2-fluorobenzamide] | 1230 | 1800 |
| 90 | C#CC[C@H](c1nc2cc(Cl)ccc2c(=O)n1Nc1ccccc1)N(CCCN)C(=O)c1cc(F)cc(F)c1 [Compound 80, (R)—N-(3-Aminopropyl)-N-(1-(7-chloro-4-oxo-3-(phenylamino)-3,4-dihydroquinazolin-2-yl)but-3-ynyl)-3,5-difluorobenzamide] | 100 | 580 |
| 160 | C#CC[C@H](c1nc2cc(Cl)ccc2c(=O)n1Nc1ccccc1)N(CCCN)C(=O)c1c(F)c(F)cc(F)c1F [Compound 71] | 320 | 840 |
